The record followed here is US9493511B2, “Cyclosporin analogs” (Allergan, Inc., priority 2010, dated 2016).

Structures can show the parent of a compound that is named as a salt. Where two headings read alike, the source gives them in different places. Square brackets hold non-standard residues; d marks the D form. Peptide text beside a SMILES is read from it. * marks the point of attachment. NMe(2-epi-Bmt) = C/C=C/C[C@@H](C)[C@@H](O)[C@@H](NC)C(=O)O; Ethyl(2-morpholino) = C1CN(CC*)CCO1; Ethyl(2-guanidino) = N=C(N)NCC*; Ala(3-yl) = N[C@@H](C*)C(=O)O; NMeL = CN[C@@H](CC(C)C)C(=O)O; dNMeL = CN[C@H](CC(C)C)C(=O)O; dNMeV = CN[C@@H](C(=O)O)C(C)C; dNMeC = CN[C@H](CS)C(=O)O; dAbu = CC[C@@H](N)C(=O)O; Et2NCH2CH2 = CCN(CC)CC*; CH2CH2COOH = O=C(O)CC*; X3 = c1cc(CC*)ccn1; X5 = CN1CCC(*)CC1; X6 = COC(=O)CC*; X1 = COC(=O)C*; X4 = CC(C)NCC*; X2 = CCCCC*

Assay [1] concerns Spleen cells from C57BL/6 (responder) and BALB/c (stimulator) mice. Put plainly: Mixed lymphocyte reaction (MLR) assay. In kind it is cell-based, mouse.
Assay [2] addresses human recombinant Cyp A (Homo sapiens, UniProt P62937). Put plainly: biochemical.
In assay [3] the target is Calcineurin (Homo sapiens, UniProt P63098+Q08209). Put plainly: biochemical.

Chain of human recombinant Cyp A (P62937 whole entry): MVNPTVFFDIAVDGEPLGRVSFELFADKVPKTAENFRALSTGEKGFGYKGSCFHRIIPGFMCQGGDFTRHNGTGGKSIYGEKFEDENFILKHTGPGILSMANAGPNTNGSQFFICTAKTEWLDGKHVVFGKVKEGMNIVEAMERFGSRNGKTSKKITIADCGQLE

On to `C/C=C/C[C@@H](C)[C@@H](O)[C@@H]1C(=O)N[C@H](CC)C(=O)N(C)[C@H](CSCCc2ccncc2)C(=O)N(C)[C@@H](CC(C)C)C(=O)N[C@H](C(C)C)C(=O)N(C)[C@H](CC(C)C)C(=O)N[C@H](C)C(=O)N[C@@H](C)C(=O)N(C)[C@H](CC(C)C)C(=O)N(C)[C@H](CC(C)C)C(=O)N(C)[C@H](C(C)C)C(=O)N1C` [Example 3, [(S)-2-(4-pyridyl)ethylthiomethyl-Sar]^3 cyclosporin A] (cyclo(A[dNMeL][dNMeL][dNMeV][NMe(2-epi-Bmt)][dAbu][dNMeC](X3)[NMeL][dV][dNMeL][dA])), for which the IC50 is 2000 nM in assay [1] (Mus musculus, read-out: MLR nM) and 11.8 µM in assay [3]. The Ki in assay [2] amounted to 4.3 nM.

For `C/C=C/C[C@@H](C)[C@@H](O)[C@@H]1C(=O)N[C@H](CC)C(=O)N(C)[C@H](CSC(C)(C)[C@@H](N)C(=O)OC)C(=O)N(C)[C@@H](CC(C)C)C(=O)N[C@H](C(C)C)C(=O)N(C)[C@H](CC(C)C)C(=O)N[C@H](C)C(=O)N[C@@H](C)C(=O)N(C)[C@H](CC(C)C)C(=O)N(C)[C@H](CC(C)C)C(=O)N(C)[C@H](C(C)C)C(=O)N1C` [Example 13, [(S)-{(S)-2-Amino-2-carbomethoxy-1,1-dimethyl-ethyl}thiomethyl-Sar]^3 cyclosporin A], in assay [2], the Ki stood at 9.3 nM. Further, the IC50 in assay [3] was 4.1 µM.

With `C/C=C/C[C@@H](C)[C@@H](O)[C@@H]1C(=O)N[C@H](CC)C(=O)N(C)[C@H](CSCCNC(C)C)C(=O)N(C)[C@@H](CC(C)C)C(=O)N[C@H](C(C)C)C(=O)N(C)[C@H](CC(C)C)C(=O)N[C@H](C)C(=O)N[C@@H](C)C(=O)N(C)[C@H](CC(C)C)C(=O)N(C)[C@H](CC(C)C)C(=O)N(C)[C@H](C(C)C)C(=O)N1C` [Example 18, [(S)-2-Isopropylaminoethylthiomethyl-Sar]^3 cyclosporin A] (cyclo(A[dNMeL][dNMeL][dNMeV][NMe(2-epi-Bmt)][dAbu][dNMeC](X4)[NMeL][dV][dNMeL][dA])), the IC50 in assay [1] (mouse spleen cells, five days, 3H-thymidine proliferation, read-out: MLR) came out at 3300 nM; in assay [3], 4.6 µM. In addition, the Ki in assay [2] was 5.2 nM.

In the case of `C/C=C/C[C@@H](C)[C@@H](O)[C@@H]1C(=O)N[C@H](CC)C(=O)N(C)[C@H](CSC(C)(C)[C@@H](N)C(=O)O)C(=O)N(C)[C@@H](CC(C)C)C(=O)N[C@H](C(C)C)C(=O)N(C)[C@H](CC(C)C)C(=O)N[C@H](C)C(=O)N[C@@H](C)C(=O)N(C)[C@H](CC(C)C)C(=O)N(C)[C@H](CC(C)C)C(=O)N(C)[C@H](C(C)C)C(=O)N1C` [Example 16, [(S)-{(S)-2-Amino-2-carbohydroxy-1,1-dimethyl-ethyl}thiomethyl-Sar]^3 cyclosporin A], the Ki in assay [2] stood at 5.8 nM. For the same molecule, the IC50 in assay [3] worked out at 2.7 µM.

On to `C/C=C/C[C@@H](C)[C@@H](O)[C@@H]1C(=O)N[C@H](CC)C(=O)N(C)[C@H](CSCCC(=O)OC)C(=O)N(C)[C@@H](CC(C)C)C(=O)N[C@H](C(C)C)C(=O)N(C)[C@H](CC(C)C)C(=O)N[C@H](C)C(=O)N[C@@H](C)C(=O)N(C)[C@H](CC(C)C)C(=O)N(C)[C@H](CC(C)C)C(=O)N(C)[C@H](C(C)C)C(=O)N1C` [Example 12, [(S)-Carbomethoxyethylthiomethyl-Sar]^3 cyclosporin A] (cyclo(A[dNMeL][dNMeL][dNMeV][NMe(2-epi-Bmt)][dAbu][dNMeC](X6)[NMeL][dV][dNMeL][dA])), for which, in assay [2], the Ki is 2.7 nM. For the same molecule, in assay [3], the IC50 came out at 9.1 µM.

Take `C/C=C/C[C@@H](C)[C@@H](O)[C@@H]1C(=O)N[C@H](CC)C(=O)N(C)[C@H](CSCCN(CC)CC)C(=O)N(C)[C@@H](CC(C)C)C(=O)N[C@H](C(C)C)C(=O)N(C)[C@H](CC(C)C)C(=O)N[C@H](C)C(=O)N[C@@H](C)C(=O)N(C)[C@H](CC(C)C)C(=O)N(C)[C@H](CC(C)C)C(=O)N(C)[C@H](C(C)C)C(=O)N1C` [Example 2, [(S)-2-Diethylaminoethylthiomethyl-Sar]^3 cyclosporin A] (cyclo(A[dNMeL][dNMeL][dNMeV][NMe(2-epi-Bmt)][dAbu][dNMeC](Et2NCH2CH2)[NMeL][dV][dNMeL][dA])): the IC50 in assay [1] (Mus musculus, read-out: MLR nM) is 3500 nM; in assay [3], 3.6 µM. In addition, the inhibition constant (Ki) in assay [2] amounted to 2.4 nM.

Regarding `C/C=C/C[C@@H](C)[C@@H](O)[C@@H]1C(=O)N[C@H](CC)C(=O)N(C)[C@H](CSCCNC(=N)N)C(=O)N(C)[C@@H](CC(C)C)C(=O)N[C@H](C(C)C)C(=O)N(C)[C@H](CC(C)C)C(=O)N[C@H](C)C(=O)N[C@@H](C)C(=O)N(C)[C@H](CC(C)C)C(=O)N(C)[C@H](CC(C)C)C(=O)N(C)[C@H](C(C)C)C(=O)N1C` [Example 19, [(S)-2-Guanidinoethyl-1-sulfanylmethyl-Sar]^3 cyclosporin A hydrochloride] (cyclo(A[dNMeL][dNMeL][dNMeV][NMe(2-epi-Bmt)][dAbu][dNMeC](Ethyl(2-guanidino))[NMeL][dV][dNMeL][dA])), the Ki in assay [2] was 6.8 nM. Further, the IC50 in assay [3] turned out to be 3.2 µM.

`C/C=C/C[C@@H](C)[C@@H](O)[C@@H]1C(=O)N[C@H](CC)C(=O)N(C)[C@H](CSC[C@H](N)C(=O)O)C(=O)N(C)[C@@H](CC(C)C)C(=O)N[C@H](C(C)C)C(=O)N(C)[C@H](CC(C)C)C(=O)N[C@H](C)C(=O)N[C@@H](C)C(=O)N(C)[C@H](CC(C)C)C(=O)N(C)[C@H](CC(C)C)C(=O)N(C)[C@H](C(C)C)C(=O)N1C` [Example 14, [(S)-{(R)-2-Amino-2-carbohydroxy-ethyl}thiomethyl-Sar]^3 cyclosporin A] (cyclo(A[dNMeL][dNMeL][dNMeV][NMe(2-epi-Bmt)][dAbu][dNMeC](Ala(3-yl))[NMeL][dV][dNMeL][dA])): in assay [3], the IC50 stood at 7.4 µM.

Regarding `C/C=C/C[C@@H](C)[C@@H](O)[C@@H]1C(=O)N[C@H](CC)C(=O)N(C)[C@H](CSC2CCN(C)CC2)C(=O)N(C)[C@@H](CC(C)C)C(=O)N[C@H](C(C)C)C(=O)N(C)[C@H](CC(C)C)C(=O)N[C@H](C)C(=O)N[C@@H](C)C(=O)N(C)[C@H](CC(C)C)C(=O)N(C)[C@H](CC(C)C)C(=O)N(C)[C@H](C(C)C)C(=O)N1C` [Example 9] (cyclo(A[dNMeL][dNMeL][dNMeV][NMe(2-epi-Bmt)][dAbu][dNMeC](X5)[NMeL][dV][dNMeL][dA])), the IC50 was 3800 nM in assay [1] (Mus musculus, read-out: MLR nM) and 3.3 µM in assay [3]. In addition, the Ki in assay [2] was 4.8 nM.

`C/C=C/C[C@@H](C)[C@@H](O)[C@@H]1C(=O)N[C@H](CC)C(=O)N(C)[C@H](CSCCCCC)C(=O)N(C)[C@@H](CC(C)C)C(=O)N[C@H](C(C)C)C(=O)N(C)[C@H](CC(C)C)C(=O)N[C@H](C)C(=O)N[C@@H](C)C(=O)N(C)[C@H](CC(C)C)C(=O)N(C)[C@H](CC(C)C)C(=O)N(C)[C@H](C(C)C)C(=O)N1C` [Example 5, [(S)-Pentylthiomethyl-Sar]^3 cyclosporin A] (cyclo(A[dNMeL][dNMeL][dNMeV][NMe(2-epi-Bmt)][dAbu][dNMeC](X2)[NMeL][dV][dNMeL][dA])): the IC50 is 2700 nM in assay [1] (Mus musculus, read-out: MLR nM) and greater than 10 µM in assay [3]. Besides, the Ki in assay [2] was 2.3 nM.

Consider `C/C=C/C[C@@H](C)[C@@H](O)[C@@H]1C(=O)N[C@H](CC)C(=O)N(C)[C@H](CSCCN2CCOCC2)C(=O)N(C)[C@@H](CC(C)C)C(=O)N[C@H](C(C)C)C(=O)N(C)[C@H](CC(C)C)C(=O)N[C@H](C)C(=O)N[C@@H](C)C(=O)N(C)[C@H](CC(C)C)C(=O)N(C)[C@H](CC(C)C)C(=O)N(C)[C@H](C(C)C)C(=O)N1C` [Example 10, [(S)-2-(Morpholino)ethylthiomethyl-Sar]^3 cyclosporin A] (cyclo(A[dNMeL][dNMeL][dNMeV][NMe(2-epi-Bmt)][dAbu][dNMeC](Ethyl(2-morpholino))[NMeL][dV][dNMeL][dA])), for which, in assay [2], the Ki was found to be 3.9 nM. Besides, in assay [3], the IC50 stood at 4.2 µM.

Regarding `C/C=C/C[C@@H](C)[C@@H](O)[C@@H]1C(=O)N[C@H](CC)C(=O)N(C)[C@H](CSCCC(=O)O)C(=O)N(C)[C@@H](CC(C)C)C(=O)N[C@H](C(C)C)C(=O)N(C)[C@H](CC(C)C)C(=O)N[C@H](C)C(=O)N[C@@H](C)C(=O)N(C)[C@H](CC(C)C)C(=O)N(C)[C@H](CC(C)C)C(=O)N(C)[C@H](C(C)C)C(=O)N1C` [Example 17, [(S)-Carbohydroxyethylthiomethyl-Sar]^3 cyclosporin A] (cyclo(A[dNMeL][dNMeL][dNMeV][NMe(2-epi-Bmt)][dAbu][dNMeC](CH2CH2COOH)[NMeL][dV][dNMeL][dA])), the Ki in assay [2] turned out to be 2.8 nM. Besides, the IC50 in assay [3] came out at 17 µM.

For `C/C=C/C[C@@H](C)[C@@H](O)[C@@H]1C(=O)N[C@H](CC)C(=O)N(C)[C@H](CSCC(=O)OC)C(=O)N(C)[C@@H](CC(C)C)C(=O)N[C@H](C(C)C)C(=O)N(C)[C@H](CC(C)C)C(=O)N[C@H](C)C(=O)N[C@@H](C)C(=O)N(C)[C@H](CC(C)C)C(=O)N(C)[C@H](CC(C)C)C(=O)N(C)[C@H](C(C)C)C(=O)N1C` [Example 11, [(S)-Carbomethoxymethylthiomethyl-Sar]^3 cyclosporin A] (cyclo(A[dNMeL][dNMeL][dNMeV][NMe(2-epi-Bmt)][dAbu][dNMeC](X1)[NMeL][dV][dNMeL][dA])), the IC50 in assay [1] (Mus musculus, read-out: MLR nM) came out at 19500 nM; in assay [3], 3.9 µM. Moreover, the Ki in assay [2] is 2.1 nM.

On to `C/C=C/C[C@@H](C)[C@@H](O)[C@@H]1C(=O)N[C@H](CC)C(=O)N(C)[C@H](CSC)C(=O)N(C)[C@@H](CC(C)C)C(=O)N[C@H](C(C)C)C(=O)N(C)[C@H](CC(C)C)C(=O)N[C@H](C)C(=O)N[C@@H](C)C(=O)N(C)[C@H](CC(C)C)C(=O)N(C)[C@H](CC(C)C)C(=O)N(C)[C@H](C(C)C)C(=O)N1C` [Example 4, [(S)-Methylthiomethyl-Sar]^3 cyclosporin A] (cyclo(A[dNMeL][dNMeL][dNMeV][NMe(2-epi-Bmt)][dAbu][dNMeC](Me)[NMeL][dV][dNMeL][dA])), for which the Ki in assay [2] stood at 6.9 nM. Further, in assay [3], the IC50 was 2.2 µM.

The term Ki denotes the dissociation constant of the complex between target and ligand, obtained from inhibition or displacement.
